This assay addresses T1, DCAF1 WD40 domain (residues 1077-1390) (Homo sapiens, UniProt Q9Y4B6).
T1 construct: DCAF1 WD40 domain (residues 1077-1390)
Nature of the assay: DCAF1 binding assay by SPR (Biacore 8K+), DCAF1-3 KD. Conditions: 25 °C, read-out: DCAF1-3 SPR (KD).
T1 sequence (Q9Y4B6 1077-1390): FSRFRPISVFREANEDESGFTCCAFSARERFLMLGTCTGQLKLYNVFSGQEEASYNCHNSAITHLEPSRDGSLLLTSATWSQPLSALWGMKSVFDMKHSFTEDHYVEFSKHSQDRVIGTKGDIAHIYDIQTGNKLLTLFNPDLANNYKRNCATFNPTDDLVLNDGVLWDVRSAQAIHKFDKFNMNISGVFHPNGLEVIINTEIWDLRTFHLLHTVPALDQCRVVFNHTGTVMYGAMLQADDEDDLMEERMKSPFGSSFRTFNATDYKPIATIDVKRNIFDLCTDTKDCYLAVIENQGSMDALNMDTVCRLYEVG
`Fc1cccc(N2CCC[C@@H](Nc3cc(N4CCOCC4)ccn3)C2F)c1` (stereo partly drawn) [I-260]: the dissociation constant (Kd) was greater than 200 µM.
As for `Cc1cccc(F)c1-c1c(C(=O)N[C@@H](CC(N)=O)c2cccc(Cl)c2)c[nH]c1C(=O)Cc1ccccc1` [I-622], the figure is less than 10 µM; as for `Clc1cccc(N2CCC[C@@H]3[C@H]2CCN3c2cc(N3CC4CC(C4)C3)ccn2)c1` [I-707], greater than 200 µM.
Regarding `O=C1C[C@H]([C@@H](NC(=O)c2cn[nH]c2-c2ccccc2F)c2cccc(Cl)c2)CN1` [I-559], the Kd lay within 100 to 200 µM.
To `C=CC(=O)NCCC1CCN(c2ccnc(N3CC[C@H]4[C@@H]3CCCN4c3cccc(F)c3)c2)CC1` [I-672] belongs less than 10 µM.
Consider `OC[C@H]1CC[C@@H](Nc2cc(N3CCCCC3)ccn2)CN1c1cccc(F)c1` [I-1008], for which the Kd lay within 10 to 100 µM.
As for `Cc1ccc(F)c(C)c1-c1c(C(=O)N[C@@H](CC(N)=O)c2cccc(Cl)c2)c[nH]c1C(=O)COCCOCCOCCOCCOCCNC(=O)C[C@@H]1N=C(c2ccc(Cl)cc2)c2c(sc(C)c2C)-n2c(C)nnc21` [I-909], the figure is less than 10 µM; as for `Fc1cccc(N2CCC[C@@H](n3ccc4c(N5CCOCC5)ncnc43)C2)c1` [I-59], 100 to 200 µM; as for `Cc1ccc(CCCOCCOCCOCCOCCOCCNC(=O)C[C@@H]2N=C(c3ccc(Cl)cc3)c3c(sc(C)c3C)-n3c(C)nnc32)c(F)c1-c1c(C(=O)N[C@@H](CC(N)=O)c2cccc(Cl)c2)c[nH]c1C#N` [I-1052], 10 to 100 µM.
As for `C=CC(=O)NCCC1CCN(c2ccnc(N3CC[C@@H]4[C@H]3CCCN4c3cccc(F)c3)c2)CC1` [I-666], the figure is greater than 200 µM; as for `C=CC(=O)Nc1ccc(-c2[nH]ncc2C(=O)N[C@H](CC(N)=O)c2cccc(Cl)c2)cc1` [I-536], greater than 200 µM; as for `c1ccc2c(N3CCC[C@@H](Nc4nccc(N5CCOCC5)n4)C3)cncc2c1` [I-54], 10 to 100 µM.
Take `CC(C(N)=O)[C@H](NC(=O)c1cn[nH]c1-c1ccccc1F)c1cccc(Cl)c1` (stereo partly drawn) [I-141]: the Kd is greater than 200 µM.
Regarding `CCN1CCN(c2ccnc(N[C@@H]3CCCN(c4cccc(F)c4)C3)n2)CC1` [I-316], the Kd was greater than 200 µM.
As for `N[C@@H](c1cncc(N2CCC[C@@H](Nc3cc(N4CCOCC4)ccn3)C2)c1)C1CC1` [I-485], the figure is greater than 200 µM; as for `CC(=O)N(c1cc(N2CCOCC2)ccn1)[C@@H]1CCCN(c2cccc(F)c2)C1` [I-271], greater than 200 µM; as for `CN(c1ccnc(N[C@@H]2CCCN(c3cccc(F)c3)C2)c1)C1CCCCC1` [I-578], 10 to 100 µM.
For the molecule `Fc1cccc(N2CCC[C@@H](Nc3cc(N4C[C@H]5C[C@@H](C4)O5)ncn3)C2)c1` [I-311], the Kd was greater than 200 µM.
Consider `Cc1cc(N2CCC[C@@H](Nc3cc(N4CCOCC4)ccn3)C2)cnc1OC(C)C` [I-428], for which the dissociation constant Kd was greater than 200 µM.
To `Fc1cccc(N2CC(Nc3cc(N4CCOCC4)ccn3)C2)c1` [I-199] belongs greater than 200 µM; to `OCCc1cccc(N2CCC[C@@H](Nc3cc(N4CCOCC4)ccn3)C2)c1` [I-861], 10 to 100 µM.
`Cc1cccc(F)c1-c1c(C(=O)N[C@@H](CC(N)=O)c2cccc(Cl)c2)c[nH]c1-c1ccccn1` [I-656]: the equilibrium dissociation constant (Kd) was less than 10 µM.
`c1ccc(Oc2cncc(N3CCC[C@@H](Nc4cc(N5CCOCC5)ccn4)C3)c2)cc1` [I-436]: the equilibrium dissociation constant (Kd) lay within 10 to 100 µM.
As for `O=C(O)C1(c2cccc(N3CCC[C@@H](Nc4cc(N5CCOCC5)ccn4)C3)c2)CCCC1` [I-697], the figure is 10 to 100 µM.
For the molecule `c1cnc2ccc(N3CCC[C@@H](Nc4nccc(N5CCOCC5)n4)C3)cc2c1` [I-56], the Kd is greater than 200 µM.
As for `C[C@H]1CC[C@@H](Nc2cc(N3CCOCC3)ncn2)CN1c1cccc(F)c1` [I-234], the figure is greater than 200 µM; as for `N#Cc1cccc(N2CCC[C@@H](Nc3cc(N4CCOCC4)ccn3)C2)c1` [I-771], greater than 200 µM.
As for `N[C@@H](c1ccccc1)c1ccc(N2CCC[C@@H](Nc3cc(N4CCOCC4)ccn3)C2)cc1` [I-683], the figure is 10 to 100 µM.
To `NC(=O)C[C@H](NC(=O)c1cn[nH]c1[C@@H]1CCCCO1)c1cccc(Cl)c1` [I-347] belongs greater than 200 µM.
In the case of `NC(=O)Cc1ccc(N2CCC[C@@H](Nc3cc(N4CCOCC4)ccn3)C2)cc1` [I-863], the Kd is greater than 200 µM.
As for `NCCOCCOCCOCCOCCOCCC1CCN(c2ccnc(N3CC[C@@H]4[C@H]3CCCN4c3cccc(F)c3)c2)CC1` [I-651], the figure is less than 10 µM; as for `CN(c1cccc(F)c1)C1CCCN(c2cc(N3CCCCC3)ccn2)C1` (stereo not drawn) [I-660], greater than 200 µM.
As for `Fc1cccc(N2CCCC(Nc3cc(N4CCOCC4)ccn3)C23CC(F)(F)C3)c1` (stereo not drawn) [I-296], the figure is greater than 200 µM; as for `c1ccc([C@@H]2CCC[C@H](Nc3cc(N4CCCCC4)ccn3)C2)cc1` [I-753], 10 to 100 µM.
As for `c1ccc(Cn2ccc3c(N4CCC[C@@H](Nc5cc(N6CCOCC6)ccn5)C4)ncnc32)cc1` [I-680], the Kd fell in the range of 100 to 200 µM.
As for `CCC(=O)N1C[C@H](c2ccc(Br)cc2)[C@@H]1C(=O)Nc1cccc2cccnc12` [I-518], the figure is greater than 200 µM; as for `N#Cc1ccc(-c2[nH]ncc2C(=O)N[C@@H](CC(N)=O)c2cccc(Cl)c2)cc1` [I-128], 10 to 100 µM; as for `NCCCCCCCCCCCCCCCCCCCCC1CCN(c2ccnc(N3CC[C@@H]4[C@H]3CCCN4c3cccc(F)c3)c2)CC1` [I-745], greater than 200 µM.
As for `Fc1cccc(N2CCC[C@@H](Nc3cc([C@H]4CCCNC4)ccn3)C2)c1` [I-110], the figure is 10 to 100 µM.
For the molecule `Cc1nc(N2CCC[C@@H](Nc3cc(N4CCOCC4)ccn3)C2)ccc1CO` [I-432], the dissociation constant Kd is greater than 200 µM.
As to `Fc1cccc(N2CCC[C@@H](Nc3cc([C@@H]4CCCCO4)ccn3)C2)c1` [I-94], the Kd is greater than 200 µM.
For `C=CC(=O)N1CCC(N(C)c2ccnc(N[C@@H]3CCCN(c4cccc(F)c4)C3)c2)CC1` [I-460], the dissociation constant Kd fell in the range of 10 to 100 µM.
To `NC(=O)C[C@H](NC(=O)c1c[nH]nc1-c1ccc[nH]c1=O)c1cccc(Cl)c1` [I-156] belongs greater than 200 µM.
To `Cc1ccc(N2CCC[C@@H](Nc3cc(N4CCOCC4)ccn3)C2)cc1` [I-509] belongs 10 to 100 µM; to `NCCOCCOCCOCCOCCOCCOCCC1CCN(c2ccnc(N3CC[C@@H]4[C@H]3CCCN4c3cccc(F)c3)c2)CC1` [I-661], less than 10 µM; to `c1cc(N2CCC[C@@H](Nc3nccc(N4CCOCC4)n3)C2)c2cccnc2c1` [I-53], 100 to 200 µM.
As for `NC(=O)C[C@H](NC(=O)c1ccc(C#Cc2ccccc2)cc1)c1cccc(Cl)c1` [I-438], the figure is greater than 200 µM; as for `N#Cc1cc2c(nc1N1CCC[C@@H](Nc3cc(N4CCOCC4)ccn3)C1)CCC2` [I-427], greater than 200 µM.
Regarding `Fc1cccc(N2CCC[C@@H](Nc3cncc(N4CCOCC4)c3)C2)c1` [I-19], the dissociation constant Kd fell in the range of 10 to 100 µM.
Consider `NC(=O)C[C@H](NC(=O)c1c[nH]nc1-c1ccccc1Cl)c1cccc(Cl)c1` [I-210], for which the Kd was greater than 200 µM.
In the case of `C=CC(=O)NCC1CCCN(c2ccnc(N[C@@H]3CCCN(c4cccc(F)c4)C3)c2)C1` (stereo partly drawn) [I-634], the dissociation constant Kd fell in the range of 10 to 100 µM.
To `NC(=O)C[C@@](NC(=O)c1c[nH]nc1-c1ccccc1F)(C(=O)O)c1cccc(Cl)c1` [I-294] belongs greater than 200 µM.
As for `c1ccc(Cn2cc(N3CCC[C@@H](Nc4cc(N5CCOCC5)ccn4)C3)cn2)cc1` [I-420], the dissociation constant Kd was greater than 200 µM.
To `Cc1c(F)ccc(F)c1-c1[nH]ncc1C(=O)N[C@@H](CC(=O)N1CCNCC1)c1cccc(Cl)c1` [I-885] belongs less than 10 µM.

The values are drawn from patent publication US20260373266A1, “PROTEIN DEGRADERS AND USES THEREOF” (KYMERA THERAPEUTICS, INC., priority 2022, published 2026).
